# Counter-ions that a name gives are not always drawn. Like-named read-outs stand apart in the source and are kept apart here.
# Key:
# [1] = biological target: Ba/F3 L858R/T790M/C797S EGFR triple mutant cell line (Homo sapiens, UniProt P00533, T790M/C797S/L858R, cells depend on it); experiment: Cell proliferation inhibition experiment (CellTiter-Glo), Ba/F3 L858R/T790M/C797S; format: cell-based; conditions: 72 hours, Cell Titer-Glo, read-out: Ba/F3 (L858R/T790M/C797S) IC50
# [2] = system: EGFR wild-type cell line A431; experiment: Cell proliferation inhibition experiment (CellTiter-Glo), A431; format: cell-based; conditions: A431 cells, Cell Titer-Glo, read-out: A431 EGFR WT IC50
# In short: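 Luminescent CellTiter-Glo readout, 30 min at room temperature, after 72 h compound exposure at 37° C., 5% CO2 with 0.1% DMSO final. EGFR wild-type A431 cells were seeded at 800 per well and grown 24 h before dosing. IC50 derived from the dose-response.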
# [3] = biological target: T1, L858R/T790M/C797S triple mutant EGFR (Homo sapiens, UniProt P00533, C797S/L858R/T790M); experiment: Enzymology experiment in vitro (HTRF/FRET kinase activity), L858R/T790M/C797S triple mutant EGFR; format: biochemical; conditions: HTRF KinEASE-TK, read-out: EGFR (L858R/T790M/C797S) IC50
# T1 construct: purchased Signalchem
# T1 sequence (P00533 25-1210 T790M/C797S/L858R): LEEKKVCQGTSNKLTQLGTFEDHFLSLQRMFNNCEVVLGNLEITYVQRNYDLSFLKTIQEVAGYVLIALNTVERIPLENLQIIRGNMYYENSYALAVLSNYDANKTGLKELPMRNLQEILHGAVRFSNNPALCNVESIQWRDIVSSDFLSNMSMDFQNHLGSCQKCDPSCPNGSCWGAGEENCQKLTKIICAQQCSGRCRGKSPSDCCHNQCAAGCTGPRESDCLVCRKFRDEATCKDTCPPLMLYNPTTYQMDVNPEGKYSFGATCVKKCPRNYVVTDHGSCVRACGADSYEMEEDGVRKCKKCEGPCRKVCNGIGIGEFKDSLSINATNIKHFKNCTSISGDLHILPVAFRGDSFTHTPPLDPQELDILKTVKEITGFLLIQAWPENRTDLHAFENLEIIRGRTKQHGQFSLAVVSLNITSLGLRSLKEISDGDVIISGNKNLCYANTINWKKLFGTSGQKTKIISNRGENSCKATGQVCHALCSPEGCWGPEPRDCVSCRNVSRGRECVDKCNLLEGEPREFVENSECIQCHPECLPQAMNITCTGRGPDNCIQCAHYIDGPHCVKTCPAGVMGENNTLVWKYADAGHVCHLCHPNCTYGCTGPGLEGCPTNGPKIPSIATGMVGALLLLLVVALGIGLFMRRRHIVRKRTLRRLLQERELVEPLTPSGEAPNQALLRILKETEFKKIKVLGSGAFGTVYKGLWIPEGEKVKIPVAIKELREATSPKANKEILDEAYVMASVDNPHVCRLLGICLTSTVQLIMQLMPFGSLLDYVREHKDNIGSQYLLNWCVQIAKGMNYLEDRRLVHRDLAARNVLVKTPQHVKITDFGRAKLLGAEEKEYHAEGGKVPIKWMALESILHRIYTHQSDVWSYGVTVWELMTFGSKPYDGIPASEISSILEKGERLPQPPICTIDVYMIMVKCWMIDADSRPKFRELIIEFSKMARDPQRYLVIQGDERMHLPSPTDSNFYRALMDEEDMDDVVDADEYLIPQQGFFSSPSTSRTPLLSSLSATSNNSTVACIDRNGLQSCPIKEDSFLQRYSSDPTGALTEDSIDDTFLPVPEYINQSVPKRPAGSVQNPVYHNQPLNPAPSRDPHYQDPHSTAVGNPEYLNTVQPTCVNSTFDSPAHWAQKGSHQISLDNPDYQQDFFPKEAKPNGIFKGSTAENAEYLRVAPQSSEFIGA
# In short: (§1)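 Kinase reaction run 40 min at room temperature with peptide and ATP after a 10 min compound–enzyme preincubation. Phosphorylation read as HTRF signal after 1 h with Eu³⁺ antibody, XL665-streptavidin and EDTA (Cisbio KinEASE-TK).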
# [4] = biological target: Ba/F3 De119/T790M/C797S EGFR triple mutant cell line (Homo sapiens, UniProt P00533, T790M/C797S, cells depend on it, form not given); experiment: Cell proliferation inhibition experiment (CellTiter-Glo), Ba/F3 De119/T790M/C797S; format: cell-based; conditions: Ba/F3 Del19/T790M/C797S EGFR triple mutant cells, 72 hours, Cell Titer-Glo; read-out: Ba/F3 (Del19/T790M/C797S) IC50
# Sequence of Ba/F3 De119/T790M/C797S EGFR triple mutant cell line (P00533 with tags, fused parts or gaps DEL746-750/T790M/C797S, form open): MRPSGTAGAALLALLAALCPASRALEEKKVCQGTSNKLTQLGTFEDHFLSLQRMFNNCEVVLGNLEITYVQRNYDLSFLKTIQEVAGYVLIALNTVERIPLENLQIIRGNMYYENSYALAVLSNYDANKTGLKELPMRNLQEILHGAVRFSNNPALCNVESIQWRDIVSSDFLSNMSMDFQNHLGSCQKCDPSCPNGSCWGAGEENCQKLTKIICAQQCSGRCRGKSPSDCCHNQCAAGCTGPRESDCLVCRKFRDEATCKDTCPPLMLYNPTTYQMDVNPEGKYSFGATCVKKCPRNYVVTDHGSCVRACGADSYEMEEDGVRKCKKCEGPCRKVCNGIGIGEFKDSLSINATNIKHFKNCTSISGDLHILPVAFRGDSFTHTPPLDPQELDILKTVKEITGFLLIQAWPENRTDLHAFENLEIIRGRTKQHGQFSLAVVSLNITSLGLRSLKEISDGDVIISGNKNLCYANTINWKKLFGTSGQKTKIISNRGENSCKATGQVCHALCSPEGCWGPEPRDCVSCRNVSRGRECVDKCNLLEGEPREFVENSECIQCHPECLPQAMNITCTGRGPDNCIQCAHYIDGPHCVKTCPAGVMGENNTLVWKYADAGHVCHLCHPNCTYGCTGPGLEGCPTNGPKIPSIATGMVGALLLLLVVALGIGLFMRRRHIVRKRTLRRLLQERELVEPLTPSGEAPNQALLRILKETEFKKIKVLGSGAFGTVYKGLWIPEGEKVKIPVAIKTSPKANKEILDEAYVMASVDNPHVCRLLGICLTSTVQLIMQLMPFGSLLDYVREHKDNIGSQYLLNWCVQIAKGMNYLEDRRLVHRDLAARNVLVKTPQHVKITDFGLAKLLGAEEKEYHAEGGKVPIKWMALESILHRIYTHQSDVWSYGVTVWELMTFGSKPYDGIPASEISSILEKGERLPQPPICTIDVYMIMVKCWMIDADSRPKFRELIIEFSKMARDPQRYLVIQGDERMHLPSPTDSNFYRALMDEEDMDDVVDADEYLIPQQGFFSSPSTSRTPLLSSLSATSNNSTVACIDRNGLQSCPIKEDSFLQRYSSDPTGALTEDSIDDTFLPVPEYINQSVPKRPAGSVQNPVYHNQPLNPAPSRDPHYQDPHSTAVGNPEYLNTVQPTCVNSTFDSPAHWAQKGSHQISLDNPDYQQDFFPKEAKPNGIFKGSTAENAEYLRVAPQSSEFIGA
# wild-type EGFR = biological target: T2, wild-type EGFR (Homo sapiens, UniProt P00533); experiment: Enzymology experiment in vitro (HTRF/FRET kinase activity), wild-type EGFR; format: biochemical; conditions: HTRF KinEASE-TK, read-out: EGFR (WT) IC50
# T2 construct: purchased Signalchem
# T2 sequence (P00533 25-1210): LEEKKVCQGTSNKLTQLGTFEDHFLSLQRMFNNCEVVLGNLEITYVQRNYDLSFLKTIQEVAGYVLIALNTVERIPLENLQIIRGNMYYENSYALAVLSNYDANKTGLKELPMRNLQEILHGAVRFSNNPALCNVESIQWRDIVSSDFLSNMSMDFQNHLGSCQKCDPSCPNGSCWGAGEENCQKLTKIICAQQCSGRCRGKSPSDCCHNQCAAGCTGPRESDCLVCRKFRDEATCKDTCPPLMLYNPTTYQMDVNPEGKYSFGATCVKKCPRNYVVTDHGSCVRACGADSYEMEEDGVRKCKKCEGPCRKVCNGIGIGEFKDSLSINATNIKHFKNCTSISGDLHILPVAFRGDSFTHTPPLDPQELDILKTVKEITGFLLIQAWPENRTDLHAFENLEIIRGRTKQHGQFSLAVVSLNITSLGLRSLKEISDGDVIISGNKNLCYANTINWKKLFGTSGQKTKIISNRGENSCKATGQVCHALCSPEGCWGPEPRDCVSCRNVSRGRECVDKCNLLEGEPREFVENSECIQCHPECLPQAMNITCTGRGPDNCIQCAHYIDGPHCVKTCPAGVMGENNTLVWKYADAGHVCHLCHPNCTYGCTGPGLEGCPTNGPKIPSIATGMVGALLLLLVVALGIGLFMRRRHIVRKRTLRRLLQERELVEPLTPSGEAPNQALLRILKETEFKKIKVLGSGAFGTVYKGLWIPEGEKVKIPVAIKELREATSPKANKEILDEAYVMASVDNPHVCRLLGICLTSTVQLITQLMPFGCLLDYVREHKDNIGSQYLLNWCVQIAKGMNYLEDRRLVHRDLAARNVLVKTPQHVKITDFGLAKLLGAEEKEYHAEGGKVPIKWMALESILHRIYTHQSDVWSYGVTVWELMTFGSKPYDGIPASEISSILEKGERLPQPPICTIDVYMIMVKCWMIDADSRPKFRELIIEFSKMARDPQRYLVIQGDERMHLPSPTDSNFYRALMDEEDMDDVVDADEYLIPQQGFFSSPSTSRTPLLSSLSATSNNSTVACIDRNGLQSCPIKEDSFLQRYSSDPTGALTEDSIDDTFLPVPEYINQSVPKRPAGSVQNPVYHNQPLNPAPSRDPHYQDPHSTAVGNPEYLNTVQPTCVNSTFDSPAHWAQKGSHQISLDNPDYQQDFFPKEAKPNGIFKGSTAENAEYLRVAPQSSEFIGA
# In short: as §1
# Sequence of Ba/F3 L858R/T790M/C797S EGFR triple mutant cell line (P00533 whole entry T790M/C797S/L858R): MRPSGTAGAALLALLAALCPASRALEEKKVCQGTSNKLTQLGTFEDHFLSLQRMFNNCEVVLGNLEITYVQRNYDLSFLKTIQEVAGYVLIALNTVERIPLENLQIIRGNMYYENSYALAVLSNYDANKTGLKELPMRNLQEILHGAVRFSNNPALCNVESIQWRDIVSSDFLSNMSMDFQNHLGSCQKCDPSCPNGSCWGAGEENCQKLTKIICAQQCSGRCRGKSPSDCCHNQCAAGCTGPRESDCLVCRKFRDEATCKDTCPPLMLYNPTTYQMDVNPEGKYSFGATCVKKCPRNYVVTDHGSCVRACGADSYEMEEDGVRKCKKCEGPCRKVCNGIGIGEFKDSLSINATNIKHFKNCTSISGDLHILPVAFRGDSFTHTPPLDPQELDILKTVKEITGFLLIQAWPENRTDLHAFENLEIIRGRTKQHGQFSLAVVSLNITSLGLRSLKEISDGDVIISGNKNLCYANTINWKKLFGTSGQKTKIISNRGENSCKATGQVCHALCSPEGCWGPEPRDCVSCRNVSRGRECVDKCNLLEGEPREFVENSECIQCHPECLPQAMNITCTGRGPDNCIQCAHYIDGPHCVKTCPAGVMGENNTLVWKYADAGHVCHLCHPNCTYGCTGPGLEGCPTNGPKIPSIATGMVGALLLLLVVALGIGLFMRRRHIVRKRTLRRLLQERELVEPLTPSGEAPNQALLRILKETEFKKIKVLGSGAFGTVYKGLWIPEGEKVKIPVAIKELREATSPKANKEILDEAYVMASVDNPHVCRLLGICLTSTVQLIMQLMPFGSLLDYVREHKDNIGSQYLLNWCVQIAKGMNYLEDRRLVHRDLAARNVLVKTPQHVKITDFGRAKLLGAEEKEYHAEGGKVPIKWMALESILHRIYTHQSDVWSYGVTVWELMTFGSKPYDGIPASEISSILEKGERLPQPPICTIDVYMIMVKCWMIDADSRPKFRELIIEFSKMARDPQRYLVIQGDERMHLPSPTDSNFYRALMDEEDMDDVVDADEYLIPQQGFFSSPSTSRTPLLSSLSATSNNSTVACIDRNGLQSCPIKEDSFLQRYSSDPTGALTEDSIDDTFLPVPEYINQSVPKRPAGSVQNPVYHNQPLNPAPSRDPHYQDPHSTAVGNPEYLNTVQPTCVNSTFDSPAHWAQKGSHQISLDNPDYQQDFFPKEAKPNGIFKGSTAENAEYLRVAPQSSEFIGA
Compound,GI50 [1],"IC50 ([2]; Homo sapiens, A-431, 72 hours)",IC50 [3],GI50 [4],IC50 (wild-type EGFR),"IC50 ([2]; Homo sapiens, A-431, 72 h)",IC50 ([2]; 72 hours)
"COc1cc(N2CCC3(CC2)CN(C)C3)c(-c2cnn(C)c2)cc1Nc1ncc(Br)c(Nc2ccc3nccnc3c2P(C)(C)=O)n1 [Compound 16, (6-((5-bromo-2-((2-methoxy-5-(1-methyl-1H-pyrazol-4-yl)-4-(2-methyl-2,7-diazaspiro[3.5]nonan-7-yl)phenyl)amino)pyrimidin-4-yl)amino)quinoxalin-5-yl)dimethylphosphine oxide formate]",23.5 nM,51.3 nM,0.05 nM,13.2 nM,0.51 nM,–,–
COc1cc(N2CCC(N3CCOCC3)CC2)c(-c2cnsc2)cc1Nc1ncc(Br)c(Nc2ccc3nccnc3c2P(C)(C)=O)n1 [compound 212],25.1 nM,–,0.33 nM,9.29 nM,18.9 nM,179 nM,–
COc1cc(N2CCC3(CCN(CC4CC4)CC3)CC2)c(-c2cnn(C)c2)cc1Nc1ncc(Br)c(Nc2ccc3nccnc3c2P(C)(C)=O)n1 [compound 167],4.34 nM,–,0.79 nM,2.97 nM,1.95 nM,47.4 nM,–
COc1cc(N2CCC(N3CCN(C)CC3)C(F)C2)c(-c2cnn(C)c2)cc1Nc1ncc(Br)c(Nc2ccc3nccnc3c2P(C)(C)=O)n1 (centres unmarked) [compound 189],23.6 nM,–,0.16 nM,9.18 nM,1.08 nM,128 nM,–
COc1cc(N2CCC3(CCN(CCF)CC3)CC2)c(-c2cnn(C)c2)cc1Nc1ncc(Br)c(Nc2ccc3ncccc3c2P(C)(C)=O)n1 [compound 238],3.59 nM,–,0.3 nM,1.83 nM,3.02 nM,61.9 nM,–
"COc1cc(N2CCOCC2)c(-c2cnn(C)c2)cc1Nc1ncc(C2CC2)c(Nc2ccc3nccnc3c2P(C)(C)=O)n1 [Compound 41, (6-((5-cyclopropyl-2-((2-methoxy-5-(1-methyl-1H-pyrazol-4-yl)-4-morpholinylphenyl)amino)pyrimidin-4-yl)amino)quinoxalin-5-yl)dimethylphosphine oxide]",34.5 nM,–,0.31 nM,8.64 nM,21.1 nM,371 nM,–
"COc1cc(N2CCOCC2)c(-c2cnn(C)c2)cc1Nc1ncc(Br)c(Nc2cc(C)c3nccnc3c2P(C)(C)=O)n1 [Compound 33, (6-((5-bromo-2-((2-methoxy-5-(1-methyl-1H-pyrazol-4-yl)-4-morpholinylphenyl)amino)pyrimidin-4-yl)amino)-8-methylquinoxalin-5-yl)dimethylphosphine oxide]",32.5 nM,–,0.26 nM,10.1 nM,50.2 nM,1420 nM,–
COc1cc(N2CCN(CC3CC3)CC2)c(-c2cnn(C)c2)cc1Nc1ncc(Br)c(Nc2ccc3nccnc3c2P(C)(C)=O)n1 [compound 235],24.8 nM,–,0.27 nM,8.53 nM,10.5 nM,–,89 nM
"COc1cc(N2CCC3(CCN(C)CC3)CC2)c(-c2cnn(C)c2)cc1Nc1ncc(Br)c(Nc2ccccc2N(C)S(=O)(=O)C2CC2)n1 [compound 183, N-(2-((5-Bromo-2-((2-methoxy-5-(1-methyl-1H-pyrazol-4-yl)-4-)(9-methyl-3,9-diazaspiro[5.5]undecan-3-yl)phenyl)amino)pyrimidin-4-yl)amino)phenyl-N-methylcyclopropanesulfonamide]",27 nM,–,1.12 nM,14.4 nM,12.2 nM,246 nM,–
"COc1cc(N2CCC3(CCN(CCF)CC3)CC2)c(-c2cnn(C)c2)cc1Nc1ncc(Br)c(Nc2ccc3nccnc3c2P(C)(C)=O)n1 [compound 133, (6-((5-bromo-2-((4-(9-(2-fluoroethyl)-3,9-diazaspiro[5.5]undecan-3-yl)-2-methoxy-5-(1-methyl-1H-pyrazol-4-yl)phenyl)amino)pyrimidin-4-yl)amino)quinoxalin-5-yl)dimethylphosphine oxide]",2.85 nM,–,0.15 nM,0.64 nM,0.78 nM,82.8 nM,–
COc1cc(N2CCC3(CC2)CO[C@@H](C)[C@@H]3N(C)C)c(-c2cnn(C)c2)cc1Nc1ncc(Br)c(Nc2ccc3nccnc3c2P(C)(C)=O)n1 (stereo in doubt) [compound 201],3.7 nM,–,0.74 nM,2.22 nM,6.92 nM,120 nM,–
COc1cc(N2CCOC(CO)C2)c(-c2cnn(C)c2)cc1Nc1ncc(Br)c(Nc2ccc3nccnc3c2P(C)(C)=O)n1 (centres unmarked) [compound 115],16.1 nM,–,0.4 nM,6.53 nM,1.65 nM,159 nM,–
COc1cc(N2CCC(N3CCN(C)CC3)CC2)c(-c2cnn(C)c2)cc1Nc1ncc(Br)c(Nc2ccccc2N(C)S(=O)(=O)C2CC2)n1 [compound 190],8.69 nM,–,0.53 nM,4.16 nM,4.37 nM,194 nM,–
COc1cc(N2CCOCC2)c(-c2cn[nH]c2)cc1Nc1ncc(C)c(Nc2ccc3nccnc3c2P(C)(C)=O)n1 [compound 97],25.5 nM,–,0.15 nM,6.64 nM,1.02 nM,406 nM,–
COc1nc(N2CCC3(CCN(CCF)CC3)CC2)c(-c2cnn(C)c2)cc1Nc1ncc(Br)c(Nc2ccc3nccnc3c2P(C)(C)=O)n1 [compound 249],8.95 nM,–,0.4 nM,2.55 nM,3.31 nM,85 nM,–
COc1cc(N2CCC3(CCOCC3)CC2)c(-c2cnn(C)c2)cc1Nc1ncc(Br)c(Nc2ccc3nccnc3c2P(C)(C)=O)n1 [compound 215],5.58 nM,–,0.25 nM,2.23 nM,7.3 nM,227 nM,–
"Cn1cc(-c2cc(Nc3ncc(Br)c(Nc4ccc5nccnc5c4P(C)(C)=O)n3)c3c(c2)OCO3)cn1 [Compound 82, (6-((5-bromo-2-((6-(1-methyl-1H-pyrazol-4-yl)benzo[d][1,3]dioxol-4-yl)amino)pyrimidin-4-yl)amino)quinoxalin-5-yl)dimethylphosphine oxide]",21.7 nM,–,0.28 nM,7.85 nM,18.2 nM,180 nM,–
COc1cc(N2CCOCC2)c(-c2cnn(C)c2)cc1Nc1ncc(F)c(Nc2ccc3nccnc3c2P(C)(C)=O)n1 [compound 81],32.4 nM,–,0.34 nM,19.1 nM,7.68 nM,≥ 10000 nM,–
COc1cc(N2CCC3(CCN(CCF)CC3)CC2)c(-c2cnn(C)c2)cc1Nc1ncc(Cl)c(Nc2ccc3nccnc3c2P(C)(C)=O)n1 [compound 233],3.54 nM,–,0.26 nM,1.74 nM,2.49 nM,79.5 nM,–
COc1cc(F)c(-c2cnn(C)c2)cc1Nc1ncc(Br)c(Nc2ccc3nccnc3c2P(C)(C)=O)n1 [compound 84],20.7 nM,–,0.33 nM,12.5 nM,16.6 nM,392 nM,–
COc1cc(N2CCC(N3CCN(CCF)CC3)CC2)c(-c2cnn(C)c2)cc1Nc1ncc(Br)c(Nc2ccccc2N(C)S(=O)(=O)C2CC2)n1 [compound 209],12.6 nM,–,0.73 nM,7.18 nM,9.74 nM,171 nM,–
COc1cc(N2CCC3(CC2)CCN(C(C)CF)CC3)c(-c2cnn(C)c2)cc1Nc1ncc(Br)c(Nc2ccc3nccnc3c2P(C)(C)=O)n1 (centres unmarked) [compound 246],3.64 nM,–,0.4 nM,2.59 nM,1.05 nM,128 nM,–

# Reference: patent US20230219986A1, “NOVEL AMINOPYRIMIDINE EGFR INHIBITOR” (QILU PHARMACEUTICAL CO., LTD., priority 2020, published 2023)
